Experiments:
[1] = target: T1, stickleback ARβ2 (reticulocyte lysate) (Gasterosteus aculeatus, UniProt Q801Z2); assay: Ligand competition assay with 1 nM [3H]-DHT, ARβ2 containing reticulocyte extract; format: binding, three-spined stickleback (Gasterosteus aculeatus); conditions: read-out: EC50 (competition for [3H]-DHT binding)
T1 sequence (Q801Z2 1-735): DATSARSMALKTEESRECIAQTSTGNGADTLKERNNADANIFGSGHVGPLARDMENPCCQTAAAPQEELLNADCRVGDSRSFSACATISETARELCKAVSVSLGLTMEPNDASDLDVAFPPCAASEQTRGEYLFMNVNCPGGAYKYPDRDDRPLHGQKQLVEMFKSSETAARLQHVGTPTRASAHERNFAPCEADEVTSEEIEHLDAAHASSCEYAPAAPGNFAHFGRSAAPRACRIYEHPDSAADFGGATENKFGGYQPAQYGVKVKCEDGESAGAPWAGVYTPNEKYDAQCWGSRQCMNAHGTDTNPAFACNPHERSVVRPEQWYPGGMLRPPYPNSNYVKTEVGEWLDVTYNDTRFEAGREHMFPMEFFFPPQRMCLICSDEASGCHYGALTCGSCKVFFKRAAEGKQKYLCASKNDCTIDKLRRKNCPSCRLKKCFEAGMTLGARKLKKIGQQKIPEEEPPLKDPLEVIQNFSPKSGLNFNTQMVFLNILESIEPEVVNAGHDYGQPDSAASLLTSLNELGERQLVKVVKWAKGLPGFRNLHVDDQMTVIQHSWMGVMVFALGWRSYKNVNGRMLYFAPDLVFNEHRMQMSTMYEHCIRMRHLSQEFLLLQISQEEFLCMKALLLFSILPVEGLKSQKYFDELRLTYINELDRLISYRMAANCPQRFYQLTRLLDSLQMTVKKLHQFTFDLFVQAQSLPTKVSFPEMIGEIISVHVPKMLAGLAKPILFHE
Procedure: The excised AR pBK CMV clones were digested with XbaI and EcoRI and the inserts were gel purified prior to ligation into the pCMV-TNT vector (Promega) between XbaI and EcoRI. […] AR was expressed by introducing the pCMV-TNT into the TNT coupled reticulocyte lysate system (Promega) according to the manufacturer's instructions. The size of the expressed products was determined by addition of S^35-methionin to the reticulocyte lysate system. The obtained protein suspension was analyzed on a denaturing 8% SDS PAGE and the sizes were determined using prestained SDS-PAGE broad range protein molecular weight standard (Bio-Rad) and a control luciferase protein of 62 kDa included in the reticulocyte lysate system (Promega). For use in binding assays AR was expressed in the absence of radioactive S^35-methionein and stored at 4°C until further used in recombinant binding assay experiments.
The steroid specificity of receptor binding was examined using a competitive binding assay. […] Following incubation, the reaction was terminated by addition of DCC and centrifugation and the specific binding in each tube was determined as described above.

stickleback ARβ2 = assay: ARE-luciferase trans-activation assay, stickleback ARβ2 in transfected HepG2 and ZFL cells; format: cell-based, three-spined stickleback (Gasterosteus aculeatus); conditions: for induction of luciferase activity: 40 h, versus control
Procedure: Two liver epithelial cell lines were used to test receptor activity. HepG2 cells (ATCC, Manassas, VA) were maintained in DMEM supplemented with 10% FCS and non-essential amino acids. ZFL cells (ATCC) were maintained in 50% L-15 Leibovitz, 15% […] and 35% DMEM supplemented with 10% FCS (Gibco, Paisley, Scotland, UK) and 50 ng ml-1 EGF (Sigma). Cells were cultured at 37°C (HepG2) or 28°C (ZFL) in 5% CO2. The transfection experiments were initiated by replacing the tissue culture medium with fresh phenol-free medium supplemented with charcoal stripped FCS and the cells were seeded on 24-well plates. Transfections were performed at 90–95% confluence using 1,5 μl Lipofectamine 2000 (Invitrogen, Carlsbad, CA, USA) and 0,6 μg DNA per well. Transfected DNA contained 60 ng pRL (Promega), 270 ng androgen response element (ARE) luciferase reporter vector, 270 ng stickleback ARβ2 expression vector or 270 ng human AR expression vector (pCMVhAR) while 270 ng empty TNT cloning vector was used to control background luciferase levels following transfections. Two different ARE containing promoter constructs were tested, one containing 3 separate ARE (HRE; slp-ARU) and a second one construct (slp-HRE2) containing 4 copies of the ARE with high affinity for R1881, a synthetic androgen, and low affinity for dexamethasone, a synthetic glucocorticoid.
After 16 h the transfection medium was replaced with fresh phenol-free medium, supplemented with charcoal stripped FCS, containing different steroid hormones. The cells were exposed to the hormones for 40 h and luciferase levels were detected using the Dual Luciferase Assay kit (Promega) in a TD 20/20 Luminometer (Turner Designs, Sunnyvale, CA). For each cell line, transfection assay was performed for each concentration with n = 4 and the luciferase value of each assay were normalized to its corresponding Renilla luciferase activity. Each experiment was repeated a minimum of 3 times. The fold-induction is presented as luciferase values normalized against the control. The control levels were arbitrarily set to 1.0 for each cell line.

## C[C@]12CC(=O)[C@H]3[C@@H](CCC4=CC(=O)CC[C@@]43C)[C@@H]1CC[C@@H]2O [KT, 11-ketotestosterone]
[1]
  EC50: 2.18 ± 0.71 nM
Stickleback ARβ2; HepG2 cells
  induction of luciferase activity: 10 fold
Stickleback ARβ2; HepG2 or ZFL cells, slp-ARU or slp-ARE reporter
  potency in activating the luciferase reporter gene relative to DHT: 3 fold
Stickleback ARβ2; ZFL cells, 10^-8 M of each steroid
  activation of stickleback AR compared with other androgens: preferentially activated
Stickleback ARβ2; ZFL cells
  induction of luciferase activity: 12 fold

From article PMC1192819, “Molecular cloning and characterization of a nuclear androgen receptor activated by 11-ketotestosterone” (Reproductive biology and endocrinology : RB&E, 2005)
